In US8901138B2, “Sulfoximine substituted quinazolines for pharmaceutical compositions” (Boehringer Ingelheim International GmbH, priority 2012, dated 2014):

Tests used:
MNK2a = target: T1, MNK2a (Homo sapiens, UniProt Q9HBH9); experiment: MNK2a in vitro kinase assay (assay 1), ADP-Glo; format: biochemical; settings: preactivated GST-MNK2a, 20 μM ATP, read-out: MNK2 IC50
T1 construct: made in house
Protocol: A. MNK2a In Vitro Kinase Assay (Assay 1)
ASSAY SETUP: The inhibition of kinase activity of MNK2a was assessed using preactivated GST-MNK2a. The white, 384-well OptiPlate F plates were purchased from Perkin Elmer. The ADP-Glo Kinase Assay (including ultra pure ATP) was purchased from Promega (V9103). Activated MNK2a was obtained as described in WO2011/104340. The unlabeled eIF4E peptide (NH2-[…]—CONH2) (SEQ ID NO: 1), differing from Seq. ID No. 5 of WO 2011/104340 by the C-terminal —CONH2 group, was purchased from Thermo Fisher Scientific. All other materials were of highest grade commercially available. Compounds are tested in either serial dilutions or single dose concentrations. The compound stock solutions are 10 mM in 100% DMSO The serial compound dilutions are prepared in 100% DMSO followed by 1:27.3 intermediate dilution in assay buffer. The final DMSO concentration in assay will be <3%. In the 384-well plates 3 μl of test compound from the intermediate dilution is mixed with 4 μl of the activated MNK2 enzyme (final concentration of 10 nM) and 4 μl of the peptide (final concentration of 25 μM)/ultra pure ATP (final concentration of 20 μM), all dissolved in assay buffer. This step is followed by an incubation time of 90 min, then 10 μl of ADP Glo reagent are added, followed by 40 min of incubation. Then 20 μl of kinase detection reagent are admixed. The plates are sealed and after an incubation period of 30 min, the luminescence signal is measured in an Envision reader to determine the amount of produced ADP. All incubation steps are performed at room temperature. The assay buffer consists of 20 mM HEPES, 2 mM DTT, 0.01% BSA, 20 mM MgCl2 and 0.1% Pluronic F-127.
Each assay microtiter plate contains wells with vehicle controls instead of compound (1% DMSO in water) as reference for the high signal (100% CTL, high signal), and wells containing a potent MNK2 inhibitor (final 20 μM, 1% DMSO) as reference for low signal (0% CTL, low signal).
The luminescent signal generated is proportional to the ADP concentration produced and is correlated with activated MNK2 activity. The analysis of the data is performed by the calculation of the percentage of ATP consumption of activated MNK2 in the presence of the test compound compared to the consumption of ATP in the presence of activated MNK2 without compound. (RLU(sample)−RLU(low control))*100/(RLU(high value)−RLU(low control)) [RLU=relative luminescence units]
An inhibitor of the MNK2 enzyme will give values between 100% CTL (no inhibition) and 0% CTL (complete inhibition). Values of more than 100% CTL are normally related to compound/sample specific physico-chemical properties (e.g. solubility, light absorbance, fluorescence).
IC50 values based on dose response curves are calculated with the AssayExplorer software.

MNK1a = MNK1a (Homo sapiens, UniProt Q9BUB5); experiment: MNK1 in vitro kinase assay (assay 2), Z'-LYTE; format: biochemical; settings: for IC50: pre-activated GST-MNK1a
Description: B. MNK1 In Vitro Kinase Assay (Assay 2)
MNK1 Data can be obtained from the MNK1 Z′-LYTE® assay. The MNK1 Z′-LYTE® screening protocol and assay conditions are also described on www.invitrogen.com.
The assay is described as follows:
The Z′-LYTE® biochemical assay employs a fluorescence-based, coupled-enzyme format and is based on the differential sensitivity of phosphorylated and non-phosphorylated peptides to proteolytic cleavage. The peptide substrate is labeled with two fluorophores—one at each end—that make up a FRET pair.
In the primary reaction, the kinase transfers the gamma-phosphate of ATP to a single tyrosine, serine or threonine residue in a synthetic FRET-peptide. In the secondary reaction, a site-specific protease recognizes and cleaves non-phosphorylated FRET-peptides. Phosphorylation of FRET-peptides suppresses cleavage by the Development Reagent. Cleavage disrupts FRET between the donor (i.e., coumarin) and acceptor (i.e., fluorescein) fluorophores on the FRET-peptide, whereas uncleaved, phosphorylated FRET-peptides maintain FRET. A ratiometric method, which calculates the ratio (the Emission Ratio) of donor emission to acceptor emission after excitation of the donor fluorophore at 400 nm, is used to quantitate reaction progress, as shown in the equation below. Emission Ratio=Coumarin Emission(445 nm)/Fluorescein Emission(520 nm)
ASSAY SETUP: The inhibition of kinase activity of MNK1a was assessed using pre-activated GST-MNK1a. The 2×MKNK1 (MNK1) mixture is prepared in 50 mM HEPES pH 7.5, 0.01% BRIJ-35, 10 mM MgCl2, 4 mM MnCl2, 1 mM EGTA, 2 mM DTT. The final 10 μL Kinase Reaction consists of 13.5-54 ng MKNK1 (MNK1) and 2 μM Ser/Thr 07 in 50 mM HEPES pH 7.5, 0.01% BRIJ-35, 10 mM MgCl2, 2 mM MnCl2, 1 mM EGTA, 1 mM DTT. After the 1 hour Kinase Reaction incubation, 5 μL of a 1:32768 dilution of Development Reagent A is added.
The Test Compounds are screened in 1% DMSO (final) in the well.
All Peptide/Kinase Mixtures are diluted to a 2× working concentration in the MNK1 Kinase Buffer.
All ATP Solutions are diluted to a 4× working concentration in Kinase Buffer (50 mM HEPES pH 7.5, 0.01% BRIJ-35, 10 mM MgCl2, 1 mM EGTA).
Development Reagent Solution:
The Development Reagent is diluted in Development Buffer
Bar-coded Corning, low volume NBS, 384-well plate (Corning Cat. #3676)
1. 2.5 μL-4× Test Compound
2. 5 μL-2× Peptide/Kinase Mixture
5. 60-minute Kinase Reaction incubation at room temperature
6. 5 μL-Development Reagent Solution
8. 60-minute Development Reaction incubation at room temperature
9. Read on fluorescence plate reader and analyze the data
The following equations are used for each set of data points: […]
Correction for Background Fluorescence: FSample−FITCFl Ctl
Emission Ratio (using values corrected for background fluorescence):Coumarin
Emission (445 nm)/Fluorescein Emission (520 nm)
% Phosphorylation (% Phos): 1−((Emission Ratio×F100%)−C100%)/((C0%−C100%)+[Emission Ratio×(F100%−F0%)])*100 % Inhibition: 1−(% PhosSample/% Phos0% Inhibition Ctl)*100 FI=Fluorescence Intensity C100%=Average Coumarin emission signal of the 100% Phos. Control C0%=Average Coumarin emission signal of the 0% Phos. Control F100%=Average Fluorescein emission signal of the 100% Phos. Control F0%=Average Fluorescein emission signal of the 0% Phos. Control Graphing Software
SelectScreen® Kinase Profiling Service uses XLfit from IDBS. The dose response curve is curve fit to model number 205 (sigmoidal dose-response model).

MNK1a, sequence (Q9BUB5 1-424 isoform Q9BUB5-2): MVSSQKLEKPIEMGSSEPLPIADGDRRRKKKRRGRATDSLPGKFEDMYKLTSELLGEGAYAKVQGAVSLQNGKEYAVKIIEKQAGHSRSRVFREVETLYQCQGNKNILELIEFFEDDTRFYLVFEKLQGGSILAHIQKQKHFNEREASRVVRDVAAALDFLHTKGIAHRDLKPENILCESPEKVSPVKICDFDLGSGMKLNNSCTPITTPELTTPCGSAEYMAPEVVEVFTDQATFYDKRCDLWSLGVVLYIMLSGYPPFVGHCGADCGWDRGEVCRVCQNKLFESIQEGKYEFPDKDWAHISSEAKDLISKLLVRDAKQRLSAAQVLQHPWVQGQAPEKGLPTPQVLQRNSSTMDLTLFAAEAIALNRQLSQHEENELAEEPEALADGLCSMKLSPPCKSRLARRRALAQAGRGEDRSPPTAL
T1 sequence (Q9HBH9 whole entry): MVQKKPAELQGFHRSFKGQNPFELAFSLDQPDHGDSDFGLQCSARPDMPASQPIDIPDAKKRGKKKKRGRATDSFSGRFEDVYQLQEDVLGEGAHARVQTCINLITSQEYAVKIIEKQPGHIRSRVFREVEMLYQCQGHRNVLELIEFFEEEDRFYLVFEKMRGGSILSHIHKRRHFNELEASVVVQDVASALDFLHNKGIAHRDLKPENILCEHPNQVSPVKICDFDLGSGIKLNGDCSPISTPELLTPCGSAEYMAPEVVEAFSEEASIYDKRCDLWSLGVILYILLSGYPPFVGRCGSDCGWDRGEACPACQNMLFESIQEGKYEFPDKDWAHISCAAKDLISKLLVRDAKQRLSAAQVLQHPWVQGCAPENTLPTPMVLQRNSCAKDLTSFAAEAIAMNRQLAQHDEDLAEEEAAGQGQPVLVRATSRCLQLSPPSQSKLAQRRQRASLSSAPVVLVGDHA

## Cc1cc(N=S2(=O)CCCC2)cc2ncnc(Nc3ccc(F)cc3O[C@@H]3CO[C@@H]4OCC[C@@H]43)c12 (racemic) [Example 2.82]
MNK2a
  IC50: 5 nM
MNK1a; compound concentration of 1 μM
  inhibition at 1 µM: 88%

## COC1CCCC(Oc2cc(F)ccc2Nc2ncnc3cc(N=S(C)(C)=O)cc(C)c23)C1 (racemic) [Example 4.12]
MNK2a
  IC50: 14 nM
MNK1a; compound concentration of 1 μM
  inhibition at 1 µM: 84%

## CCS(C)(=O)=Nc1cc(C)c2c(Nc3ccc(F)cc3OC3CCOC3)ncnc2c1 (single isomer, unassigned) [Example 7.13]
MNK2a
  IC50: 2 nM
MNK1a; compound concentration of 1 μM
  inhibition at 1 µM: 98%

## CCS(C)(=O)=Nc1cc(C)c2c(Nc3ccc(F)cc3OC3CCOC3)ncnc2c1 (single isomer, unassigned) [Example 7.14]
MNK2a
  IC50: 7 nM
MNK1a; compound concentration of 1 μM, 1 µM
  % Inhibition of MNK1: 91%

## Cc1cc(N=S(C)(C)=O)cc2ncnc(Nc3ccc(F)cc3O[C@@H]3CO[C@H]4[C@@H]3OC[C@@H]4O)c12 [Example 1.1]
MNK2a
  IC50: 1 nM
MNK1a; compound concentration of 1 μM
  inhibition at 1 µM: 98%

## CO[C@@H]1CO[C@H]2[C@@H]1OC[C@H]2Oc1cc(F)ccc1Nc1ncnc2cc(N=S(C)(C)=O)cc(Cl)c12 [Example 1.2]
MNK2a
  IC50: 1 nM
MNK1a
  IC50: 13 nM

## CS(C)(=O)=Nc1cc(Cl)c2c(Nc3ccc(F)cc3O[C@@H]3CO[C@@H]4CCO[C@@H]43)ncnc2c1 [Example 1.4]
MNK2a
  IC50: 1 nM
MNK1a; compound concentration of 1 μM
  inhibition at 1 µM: 100%
MNK1a
  IC50: 25 nM

## Cc1cc(N=S(C)(C)=O)cc2ncnc(Nc3cccnc3O[C@@H]3CO[C@H]4[C@@H]3OC[C@H]4O)c12 [Example 1.9]
MNK2a
  IC50: 6 nM
MNK1a; compound concentration of 1 μM
  inhibition at 1 µM: 90%

## Cc1cc(N=S(C)(C)=O)cc2ncnc(Nc3ccccc3OC3CCOCC3)c12 [Example 1.12]
MNK2a
  IC50: 21 nM
MNK1a; compound concentration of 1 μM
  inhibition at 1 µM: 92%

## CS(C)(=O)=Nc1cc(C2CC2)c2c(Nc3ccc(F)cc3O[C@H]3CCOC3)ncnc2c1 [Example 1.15]
MNK2a
  IC50: 3 nM
MNK1a; compound concentration of 1 μM
  inhibition at 1 µM: 95%

## CS(C)(=O)=Nc1cc(Cl)c2c(Nc3ccc(F)cc3O[C@H]3CC[C@H](O)CC3)ncnc2c1 [Example 1.17]
MNK2a
  IC50: 2 nM
MNK1a
  IC50: 39 nM

## Cc1cc(N=S(C)(C)=O)cc2ncnc(Nc3ccc(F)cc3O[C@@H]3CO[C@H]4[C@@H]3OC[C@H]4O)c12 [Example 1.18]
MNK2a
  IC50: 2 nM
MNK1a; compound concentration of 1 μM
  inhibition at 1 µM: 100%

## CS(C)(=O)=Nc1cc(N2CCC2)c2c(Nc3ccc(F)cc3O[C@H]3CCOC3)ncnc2c1 [Example 1.19]
MNK2a
  IC50: 106 nM
MNK1a; compound concentration of 1 μM
  inhibition at 1 µM: 42%

## CO[C@@H]1CO[C@H]2[C@@H]1OC[C@H]2Oc1cc(F)ccc1Nc1ncnc2cc(N=S(C)(C)=O)cc(Br)c12 [Example 1.20]
MNK2a
  IC50: 1 nM
MNK1a; compound concentration of 1 μM
  inhibition at 1 µM: 100%

## CS(C)(=O)=Nc1cc(C(F)F)c2c(Nc3ccc(F)cc3O[C@H]3CCOC3)ncnc2c1 [Example 1.21]
MNK2a
  IC50: 2 nM
MNK1a
  IC50: 21 nM

## CS(C)(=O)=Nc1cc(O)c2c(Nc3ccc(F)cc3O[C@H]3CCOC3)ncnc2c1 [Example 1.22]
MNK2a
  IC50: 25 nM
MNK1a; compound concentration of 1 μM
  inhibition at 1 µM: 56%

## CS(C)(=O)=Nc1cc(OC(F)F)c2c(Nc3ccc(F)cc3O[C@H]3CCOC3)ncnc2c1 [Example 1.23]
MNK2a
  IC50: 4 nM
MNK1a; compound concentration of 1 μM
  inhibition at 1 µM: 94%

## CO[C@@H]1CO[C@H]2[C@@H]1OC[C@H]2Oc1cc(F)ccc1Nc1ncnc2cc(N=S(C)(C)=O)cc(OC(F)F)c12 [Example 1.24]
MNK2a
  IC50: 1 nM
MNK1a
  IC50: 18 nM

## CS(C)(=O)=Nc1cc(OC2CC2)c2c(Nc3ccc(F)cc3O[C@H]3CCOC3)ncnc2c1 [Example 1.25]
MNK2a
  IC50: 48 nM
MNK1a; compound concentration of 1 μM
  inhibition at 1 µM: 66%

## O=S1(=Nc2cc(Cl)c3c(Nc4ccc(F)cc4O[C@H]4CCOC4)ncnc3c2)CCC1 [Example 1.26]
MNK2a
  IC50: 2 nM
MNK1a; compound concentration of 1 μM
  inhibition at 1 µM: 100%

## O=S1(=Nc2cc(Cl)c3c(Nc4ccc(F)cc4O[C@@H]4CO[C@@H]5CCO[C@@H]54)ncnc3c2)CCC1 [Example 1.27]
MNK2a
  IC50: 1 nM
MNK1a
  IC50: 11 nM

## Cc1cc(N=S(C)(C)=O)cc2ncnc(Nc3ccc(F)cc3OC3(C)CC3)c12 [Example 1.28]
MNK2a
  IC50: 4 nM
MNK1a; compound concentration of 1 μM
  inhibition at 1 µM: 89%

## Cc1cc(N=S(C)(C)=O)cc2ncnc(Nc3ccc(F)cc3OC3(C)CCC3)c12 [Example 1.29]
MNK2a
  IC50: 2 nM
MNK1a; compound concentration of 1 μM
  inhibition at 1 µM: 92%

## Cc1cc(N=S(C)(C)=O)cc2ncnc(Nc3ccc(F)cc3OC3(C(F)(F)F)CCC3)c12 [Example 1.30]
MNK2a
  IC50: 2 nM
MNK1a; compound concentration of 1 μM
  inhibition at 1 µM: 89%

## Cc1cc(N=S(C)(C)=O)cc2ncnc(Nc3ccc(F)cc3OC3(C)COC3)c12 [Example 1.31]
MNK2a
  IC50: 13 nM
MNK1a; compound concentration of 1 μM
  inhibition at 1 µM: 87%

## Cc1cc(N=S(C)(C)=O)cc2ncnc(Nc3ccc(F)cc3OC3(C)CCOC3)c12 (stereo not shown) [Example 1.32]
MNK2a
  IC50: 7 nM
MNK1a
  IC50: 149 nM

## Cc1cc(N=S(C)(C)=O)cc2ncnc(Nc3ccc(F)cc3OC3(C)CC3C)c12 (stereo not shown) [Example 1.33]
MNK2a
  IC50: 2 nM
MNK1a
  IC50: 110 nM
